Measured values published in PubChem BioAssay AID256 (DTP/NCI, 2004).
Toxic doses and inconclusive results are not listed. Rule for the calls: active = survival T/C of 150% or more; inactive = T/C below 125% in these data.

Tested on: CD2F1 mice, L1210 leukemia ip, survival T/C
Test: NCI In Vivo Anticancer Drug Screen. Data for tumor model L1210 Leukemia (intraperitoneal) in CD2F1 (CDF1) mice
Conditions: higher = longer survival
Method in brief: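 Each value reflects a quotient of treated over vehicle control outcomes in mice with a transplanted tumor.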

[1] = endpoint: mean survival time, dose: 100.0 mg/kg/injection, schedule: Q04DX003 (ip), vehicle: Klucel (hydroxypropylcellulose) (HPC)
[2] = endpoint: mean survival time, dose: 200.0 mg/kg/injection, schedule: Q04DX003 (ip), vehicle: Klucel (hydroxypropylcellulose) (HPC)
[3] = endpoint: mean survival time, dose: 400.0 mg/kg/injection, schedule: Q04DX003 (ip), vehicle: Klucel (hydroxypropylcellulose) (HPC)
[4] = endpoint: mean survival time, dose: 100.0 mg/kg/injection, schedule: Q01DX001 (ip), vehicle: saline
[5] = endpoint: mean survival time, dose: 200.0 mg/kg/injection, schedule: Q01DX001 (ip), vehicle: saline
[6] = endpoint: mean survival time, dose: 400.0 mg/kg/injection, schedule: Q01DX001 (ip), vehicle: saline
[7] = endpoint: mean survival time, dose: 100.0 mg/kg/injection, schedule: Q01DX009 (ip), vehicle: other
[8] = endpoint: mean survival time, dose: 100.0 mg/kg/injection, schedule: Q01DX009 (ip), vehicle: saline with Tween-80
[9] = endpoint: mean survival time, dose: 200.0 mg/kg/injection, schedule: Q01DX009 (ip), vehicle: saline with Tween-80
[10] = endpoint: mean survival time, dose: 400.0 mg/kg/injection, schedule: Q01DX009 (ip), vehicle: saline with Tween-80
[11] = endpoint: mean survival time, dose: 100.0 mg/kg/injection, schedule: Q04DX003 (ip), vehicle: saline with Tween-80
[12] = endpoint: mean survival time, dose: 200.0 mg/kg/injection, schedule: Q04DX003 (ip), vehicle: saline with Tween-80
[13] = endpoint: mean survival time, dose: 400.0 mg/kg/injection, schedule: Q04DX003 (ip), vehicle: saline with Tween-80
[14] = endpoint: mean survival time, dose: 16.0 mg/kg/injection, schedule: Q01DX009 (ip), vehicle: saline
[15] = endpoint: mean survival time, dose: 100.0 mg/kg/injection, schedule: Q04DX002 (ip), vehicle: saline with Tween-80

Measured: T/C

O=[N+]([O-])O.[NH-]C1CCCCC1[NH-].[NH-]C1CCCCC1[NH-].[NH-]C1CCCCC1[NH-].[OH-].[OH-].[OH-].[Pt+4].[Pt+4].[Pt+4] (stereo not drawn)
inactive: endpoint: mean survival time, dose: 20.0 mg/kg/injection, schedule: Q04DX003 (ip), vehicle: water 87 % of control

CCOS(=O)(=O)c1ccc(N)c([N+](=O)[O-])c1
inactive: endpoint: mean survival time, dose: 100.0 mg/kg/injection, schedule: Q01DX001 (ip), vehicle: Klucel (hydroxypropylcellulose) (HPC) 100 % of control | endpoint: mean survival time, dose: 100.0 mg/kg/injection, schedule: Q01DX009 (ip), vehicle: Klucel (hydroxypropylcellulose) (HPC) 100 % of control | endpoint: mean survival time, dose: 200.0 mg/kg/injection, schedule: Q01DX001 (ip), vehicle: Klucel (hydroxypropylcellulose) (HPC) 111 % of control | endpoint: mean survival time, dose: 200.0 mg/kg/injection, schedule: Q01DX009 (ip), vehicle: Klucel (hydroxypropylcellulose) (HPC) 100 % of control | endpoint: mean survival time, dose: 400.0 mg/kg/injection, schedule: Q01DX001 (ip), vehicle: Klucel (hydroxypropylcellulose) (HPC) 100 % of control

CCOC(=O)/C=C/c1ccc(O)cc1
inactive: [1] 102 % of control | [2] 98 % of control | [3] 98 % of control

CCOC(=O)CSc1ccc(F)cc1
inactive: [4] 90 % of control | [5] 100 % of control | [6] 91 % of control

CCCCCCC(O)CCCCCC
inactive: [7] 96 % of control | endpoint: mean survival time, dose: 100.0 mg/kg/injection, schedule: Q04DX003 (ip), vehicle: other 100 % of control | endpoint: mean survival time, dose: 200.0 mg/kg/injection, schedule: Q01DX009 (ip), vehicle: other 98 % of control | endpoint: mean survival time, dose: 200.0 mg/kg/injection, schedule: Q04DX003 (ip), vehicle: other 97 % of control | endpoint: mean survival time, dose: 400.0 mg/kg/injection, schedule: Q01DX009 (ip), vehicle: other 98 % of control | endpoint: mean survival time, dose: 400.0 mg/kg/injection, schedule: Q04DX003 (ip), vehicle: other 95 % of control

O=C(N/N=C/c1cccc(Cl)c1)c1ccccc1
inactive: [8] 94 % of control | [1] 96 % of control | [9] 94 % of control | [2] 94 % of control | [10] 96 % of control | [3] 94 % of control

CC1Cc2c([nH]c(=O)n(-c3ccccc3)c2=O)O1 (stereo not drawn)
inactive: [4] 103 % of control | [5] 92 % of control | [6] 92 % of control

O=P1(C(Cl)Cl)OCCCO1
inactive: [4] 103 % of control | [5] 100 % of control | [6] 100 % of control

CC(=O)Nc1ccc(/C=N/NC(=O)CNC(=O)Nc2ccc(Cl)c(Cl)c2)cc1
inactive: [8] 95 % of control | [9] 100 % of control | [10] 109 % of control

O=S(=O)(OC1CCCCC1Cl)c1ccc(Br)cc1 (stereo not drawn)
inactive: [11] 102 % of control | [12] 94 % of control | [13] 94 % of control

CCCc1nc(/N=N/N(C)C)c(C(N)=O)[nH]1
inactive: endpoint: mean survival time, dose: 75.0 mg/kg/injection, schedule: Q01DX001 (ip), vehicle: saline 114 % of control | endpoint: mean survival time, dose: 150.0 mg/kg/injection, schedule: Q01DX001 (ip), vehicle: saline 120 % of control | endpoint: mean survival time, dose: 300.0 mg/kg/injection, schedule: Q01DX001 (ip), vehicle: saline 122 % of control

CCOC(=O)CC1CCCCC1CC(=O)OCC (stereo not drawn)
inactive: endpoint: mean survival time, dose: 37.5 mg/kg/injection, schedule: Q01DX009 (ip), vehicle: saline 95 % of control | endpoint: mean survival time, dose: 75.0 mg/kg/injection, schedule: Q01DX009 (ip), vehicle: saline 98 % of control | endpoint: mean survival time, dose: 75.0 mg/kg/injection, schedule: Q04DX003 (ip), vehicle: saline 97 % of control | endpoint: mean survival time, dose: 150.0 mg/kg/injection, schedule: Q01DX009 (ip), vehicle: saline 100 % of control | endpoint: mean survival time, dose: 150.0 mg/kg/injection, schedule: Q04DX003 (ip), vehicle: saline 103 % of control | endpoint: mean survival time, dose: 300.0 mg/kg/injection, schedule: Q04DX003 (ip), vehicle: saline 101 % of control

CN(C)C(=O)c1cccc(NC(=O)NCc2cccc(N3C(N)=NC(N)=NC3(C)C)c2)c1
inactive: endpoint: mean survival time, dose: 25.0 mg/kg/injection, schedule: Q01DX009 (ip), vehicle: saline 94 % of control | endpoint: mean survival time, dose: 50.0 mg/kg/injection, schedule: Q01DX009 (ip), vehicle: saline 95 % of control

COc1cccc2c1C(=O)c1c(O)c3c(c(O)c1C2=O)C[C@@](O)(/C(C)=N/NC(=O)c1ccc(Cl)cc1)C[C@@H]3OC1CC(N)C(O)C(C)O1 (stereo partly drawn)
inactive: endpoint: mean survival time, dose: 0.5 mg/kg/injection, schedule: Q01DX009 (ip), vehicle: saline 96 % of control | endpoint: mean survival time, dose: 0.5 mg/kg/injection, schedule: Q01DX009 (ip), vehicle: suspension in saline 110 % of control | endpoint: mean survival time, dose: 1.0 mg/kg/injection, schedule: Q01DX009 (ip), vehicle: suspension in saline 115 % of control | endpoint: mean survival time, dose: 2.0 mg/kg/injection, schedule: Q01DX009 (ip), vehicle: saline 122 % of control | endpoint: mean survival time, dose: 2.0 mg/kg/injection, schedule: Q01DX009 (ip), vehicle: suspension in saline 118 % of control | [14] 108 % of control

O=P(N1CC1)(N1CC1)N1CC1
inactive: endpoint: mean survival time, dose: 2.0 mg/kg/injection, schedule: Q03DX003 (ip), vehicle: saline 110 % of control | [14] 96 % of control

CN1CCC(C(O)c2ccccc2)CC1 (stereo not drawn)
inactive: [11] 102 % of control | [12] 100 % of control | [13] 88 % of control

NC(=O)C1C=CCC1 (stereo not drawn)
inactive: endpoint: mean survival time, dose: 25.0 mg/kg/injection, schedule: Q01DX009 (ip), vehicle: saline with Tween-80 104 % of control | endpoint: mean survival time, dose: 25.0 mg/kg/injection, schedule: Q04DX002 (ip), vehicle: saline with Tween-80 95 % of control | endpoint: mean survival time, dose: 50.0 mg/kg/injection, schedule: Q01DX009 (ip), vehicle: saline with Tween-80 101 % of control | endpoint: mean survival time, dose: 50.0 mg/kg/injection, schedule: Q04DX002 (ip), vehicle: saline with Tween-80 100 % of control | [8] 101 % of control | [15] 91 % of control

COc1ccc2c(c1)CCC1C(=O)NN=C21 (stereo not drawn)
inactive: [15] 103 % of control | endpoint: mean survival time, dose: 200.0 mg/kg/injection, schedule: Q04DX002 (ip), vehicle: saline with Tween-80 103 % of control | endpoint: mean survival time, dose: 400.0 mg/kg/injection, schedule: Q04DX002 (ip), vehicle: saline with Tween-80 103 % of control

[Cl][Pt][Cl].[NH-]C(CCC(N)=O)C(=O)O (stereo not drawn)
inactive: endpoint: median survival time, dose: 12.5 mg/kg/injection, schedule: Q04DX003 (ip), vehicle: water 100 % of control | endpoint: median survival time, dose: 25.0 mg/kg/injection, schedule: Q04DX003 (ip), vehicle: water 101 % of control | endpoint: median survival time, dose: 50.0 mg/kg/injection, schedule: Q04DX003 (ip), vehicle: water 108 % of control | endpoint: median survival time, dose: 100.0 mg/kg/injection, schedule: Q04DX003 (ip), vehicle: water 107 % of control | endpoint: median survival time, dose: 200.0 mg/kg/injection, schedule: Q04DX003 (ip), vehicle: water 111 % of control

CC(=O)c1ccc(N=NC2C(=O)N(c3ccccc3)N=C2C)cc1 (stereo not drawn)
inactive: [9] 87 % of control | [10] 95 % of control

Cc1ccc(NS(=O)(=O)c2ccccc2)c([N+](=O)[O-])c1
inactive: [8] 97 % of control | [11] 105 % of control | [9] 95 % of control | [12] 97 % of control | [10] 100 % of control | [13] 100 % of control

Cc1cc(Nc2ccc3c(c2)OCO3)c2cc3c(cc2n1)OCO3
inactive: endpoint: median survival time, dose: 25.0 mg/kg/injection, schedule: Q01DX009 (ip), vehicle: Klucel (hydroxypropylcellulose) (HPC) 105 % of control | endpoint: median survival time, dose: 50.0 mg/kg/injection, schedule: Q01DX009 (ip), vehicle: Klucel (hydroxypropylcellulose) (HPC) 121 % of control | endpoint: median survival time, dose: 100.0 mg/kg/injection, schedule: Q01DX009 (ip), vehicle: Klucel (hydroxypropylcellulose) (HPC) 94 % of control

Nc1nc(=O)n(C2OC(CO)C(O)C2O)c2sccc12 (stereo not drawn)
inactive: endpoint: mean survival time, dose: 25.0 mg/kg/injection, schedule: Q01DX005 (ip), vehicle: water 94 % of control | endpoint: mean survival time, dose: 50.0 mg/kg/injection, schedule: Q01DX005 (ip), vehicle: water 94 % of control | endpoint: mean survival time, dose: 100.0 mg/kg/injection, schedule: Q01DX005 (ip), vehicle: water 89 % of control | endpoint: mean survival time, dose: 200.0 mg/kg/injection, schedule: Q01DX005 (ip), vehicle: water 89 % of control

CNC(=S)NNc1ccc(Cl)cc1
inactive: endpoint: mean survival time, dose: 12.5 mg/kg/injection, schedule: Q01DX009 (ip), vehicle: other 96 % of control | endpoint: mean survival time, dose: 25.0 mg/kg/injection, schedule: Q01DX009 (ip), vehicle: other 94 % of control | endpoint: mean survival time, dose: 50.0 mg/kg/injection, schedule: Q01DX009 (ip), vehicle: other 93 % of control | [7] 104 % of control

CC(=O)OC1CCCC2=CC(=O)CCC21C (stereo not drawn)
inactive: [11] 96 % of control | [12] 92 % of control
